# Test results taken from BindingDB's records for PubMed 36270088 (n/a, 2022).
# Experiment: Antagonist activity against CXCR4 in human SUP-T1 cells assessed as inhibition of SDF-1alpha-induced cell migration preincubated with cells for 30 mins followed by incubation with SDF-1alpha for 3 hrs by CellTiter-96 reagent based transwell assay
compound,measurement,value
CC(C)C[C@@H](N)C(=O)NCC(=O)N[C@H](C)C(=O)N[C@H](CO)C(=O)N[C@H](Cc1c[nH]c2ccccc12)C(=O)N[C@H](Cc1cnc[nH]1)C(=O)N[C@H](CCCNC(=N)N)C(=O)N1CCC[C@@H]1C(=O)N[C@H](CC(=O)O)C(=O)N[C@H](CCCCN)C(=O)N[C@H](CCCCN)C(=O)N[C@H](CCCNC(=N)N)C(=O)N(CCCCCC(=O)O)[C@H](CCCCN)C(=O)N[C@H](CCCNC(=N)N)C(=O)N[C@H](CCCCN)C(=O)N[C@H](CCC(N)=O)C(=O)N[C@H](CCCNC(=N)N)C(=O)NCC(=O)N1CCC[C@@H]1C(=O)NCC(=O)N[C@H](CCCNC(=N)N)C(=O)N[C@H](C)C(=O)N[C@H](Cc1ccccc1)C(N)=O,IC50,0.87 µM
CC(C)C[C@@H](N)C(=O)NCC(=O)N[C@H](C)C(=O)N[C@H](CO)C(=O)N[C@H](Cc1c[nH]c2ccccc12)C(=O)N[C@H](Cc1cnc[nH]1)C(=O)N[C@H](CCCNC(=N)N)C(=O)N1CCC[C@@H]1C(=O)N[C@H](CC(=O)O)C(=O)N[C@H](CCCCN)C(=O)N[C@H](CCCCN)C(=O)N[C@H](CCCNC(=N)N)C(=O)N(CCCCCC(=O)O)[C@@H](CCCCN)C(=O)N[C@@H](CCCNC(=N)N)C(=O)N[C@@H](CCCCN)C(=O)N[C@@H](CCC(N)=O)C(=O)N[C@@H](CCCNC(=N)N)C(=O)NCC(=O)N1CCC[C@H]1C(=O)NCC(=O)N[C@@H](CCCNC(=N)N)C(=O)N[C@@H](C)C(=O)N[C@@H](Cc1ccccc1)C(N)=O,IC50,6.08 µM
